Values joined by “and” are separate entries in the source; they are usually repeats but may differ in a detail not shown here. Equal values may be shown once. *1 amine or outer side, *2 acyl side, *3 side chain or, on linkers, in order; H or OH if unused. Where a SMILES comes first, the peptide text is derived from it. [ ]: non-standard residue; d: D form. The star is where a group is joined. Dolaproine = CO[C@@H]([C@@H]1CCCN1)[C@@H](C)C(=O)O; Dil = CC[C@H](C)[C@H](NC)[C@@H](CC(=O)O)OC; PABC = O=C(OCc1ccc(N[*:1])cc1)[*:2]; X1 = C[C@@H](N*)[C@@H](O)c1ccccc1; NMeV = CN[C@H](C(=O)O)C(C)C
Key:
[1] = test system: SK-MEL-28 human melanoma cells; assay: In vitro antiproliferative activity, "kiss-and-run" washout experiment (30 min + washout + up to 72 h); type: cell-based; settings: MTT, 30 min treatment, washout, further incubation up to 72 h, 5% serum final
Procedure: (§1) U87MG human malignant glioma, SK-MEL-28 human melanoma, SK-OV-3 human ovarian cancer, and A549 human lung cancer cell lines were purchased from ATCC. The cells were cultured in Dulbecco’s Modified Eagle’s Medium (DMEM; Biosera, Nuaille, France), supplemented with 10% heat-inactivated Fetal Bovine Serum (FBS; Biosera), and with 1% Penicillin/Streptomycin (Biosera). Cells were cultured in sterile T75 flasks with ventilation cap (Sarstedt, Nümbrecht, Germany) at 37 °C in a humidified atmosphere with 5% CO2 in ESCO CelCulture Incubator (ESCO, Friedberg, Germany). Manipulations with the cells were performed in biosafety cabinet (laminar) ESCO Sentinel Gold class II model AC2-4E8 (ESCO).
(§2) After standard trypsinization and harvesting cells by trypsin (Biosera), ethylenediaminetetraacetic acid (EDTA; Biosera) and PBS solution, 6×10^3 cells per well were seeded in serum containing (10%) growth medium to 96-well plates with flat bottom (Eppendorf, Hamburg, Germany), in a 100 μL volume per well, and incubated at 37°C.
(§3) In the wash out experiment, cells were incubated with the compounds (5% serum final) for 30 min, then they were washed out, and additionally incubated in growth medium (5% serum final) up to 72 h. The control wells were treated only with serum free medium (5% serum final).
(§4) For the evaluation of the in vitro antiproliferative activity of compounds, the cell viability was determined by MTT assay (3-(4,5-dimethylthiazol-2-yl)-2,5-diphenyl-tetrazolium bromide) obtained from Duchefa Biochemie (Haarlem, Netherlands).
(§5) 22 µL of MTT solution (5 mg/mL in PBS, 0.5 mg/mL final) was added to each well and after 2 h incubation at 37°C, the supernatant was removed. […] Average background absorbance (DMSO-Ethanol) was subtracted from absorbance values of control and treated wells, and cell viability was determined relative to untreated (control) wells where cell viability was arbitrarily set to 100%. […] The experiments were done in triplicate and each experiment was repeated three times.
(§6) Recently, a new protocol for evaluating the antiproliferative activity and the targeting ability of integrin-ligand based conjugates was developed by the group of Prof. […] In this procedure, which we named “kiss-and-run” experiment, after very short initial contact times (15–30 min) of the toxin with the cells in vitro, the solution is drained, and cells are resuspended in the culture medium for a 72 h incubation. This protocol is aimed at simulating the rapid clearance of the drugs that occurs in vivo in the extracellular tumor environment, thus highlighting the ability of the conjugate to bind the integrin receptor on the cell surface.

[2] = test system: A549 human lung cancer cells; assay: as above; type: cell-based; settings: MTT, 30 min treatment, washout, further incubation up to 72 h, 5% serum final; αVβ3 low expressing line
Procedure: as §1, §2, §3, §4, §5, §6

[3] = test system: U87MG human malignant glioma cells; assay: as above; type: cell-based; settings: MTT, 30 min treatment, washout, further incubation up to 72 h, 5% serum final
Procedure: as §1, §2, §3, §4, §5, §6

[4] = test system: SK-OV-3 human ovarian cancer cells; assay: as above; type: cell-based; settings: MTT, 30 min treatment, washout, further incubation up to 72 h, 5% serum final
Procedure: as §1, §2, §3, §4, §5, §6

[5] = test system: SK-MEL-28 human melanoma cells; assay: In vitro antiproliferative activity, MTT, 72 h continuous treatment (no-washout); type: cell-based; settings: MTT, 72 h continuous treatment, no washout, 5% serum final; triplicate, repeated three times
Procedure: as §1, §2
(§7) […] The control wells were treated only with serum free medium (5% serum final).
as §4, §5

[6] = test system: U87MG human malignant glioma cells; assay: as above; type: cell-based; settings: MTT, 72 h continuous treatment, no washout, 5% serum final; triplicate, repeated three times
Procedure: as §1, §2, §7, §4, §5

[7] = test system: A549 human lung cancer cells; assay: as above; type: cell-based; settings: MTT, 72 h continuous treatment, no washout, 5% serum final; αVβ3 low expressing line; triplicate, repeated three times
Procedure: as §1, §2, §3, §4, §5

[8] = test system: SK-OV-3 human ovarian cancer cells; assay: as above; type: cell-based; settings: MTT, 72 h continuous treatment, no washout, 5% serum final; triplicate, repeated three times
Procedure: as §1, §2, §3, §4, §5

SK-MEL-28 cells = assay: In vitro antiproliferative activity in the presence of MMP-2 inhibitor; type: cell-based, human; settings: 16 h pre-incubation with MMP-2 inhibitor 10 µM, then 72 h continuous treatment, 5% serum final; average ± SD, triplicate; read-out: IC50 MMP-2 inhibitor + Treatment 72 h SK-MEL-28 (αVβ3 +)
Procedure: as §4
(§8) 22 µL of MTT solution (5 mg/mL in PBS, 0.5 mg/mL final) was added to each well and after 2 h incubation at 37°C, the supernatant was removed. The precipitated purple formazan crystals were dissolved in 100 µL of a 1:1 solution of dimethylsulfoxide (DMSO; Merck, St. Louis, MO, United States): 96% Ethanol (Molar Chemicals Kft., Halásztelek, Hungary) and the absorbance was measured after 15 min at λ = 570 nm by using microplate reader CLARIOstar Plus (BMG Labtech, Ortenberg, Germany). Average background absorbance (DMSO-Ethanol) was subtracted from absorbance values of control and treated wells, and cell viability was determined relative to untreated (control) wells where cell viability was arbitrarily set to 100%. Absorbance values of treated samples were normalized versus untreated control samples and interpolated by nonlinear regression analysis with GraphPad Prism 6 software (GraphPad, La Jolla, San Diego, CA, United States) to generate sigmoidal dose-response curves from which the 50% inhibitory concentration (IC50) values of the compounds were calculated and presented as nanomolar (nM) units. The experiments were done in triplicate and each experiment was repeated three times.
(§9) The conjugate 2 and the free MMAE were tested in presence of the MMP-2 inhibitor cis-9-octadecenoyl-N-hydroxylamine (Merck) dissolved in DMSO ([You et al., 2018]). The three αVβ3 integrin and MMP-2 overexpressing cancer cell lines (U87MG, SK-MEL-28, […]) were seeded with serum containing medium ([Ellijimi et al., 2018]; [Shim et al., 2019]) and, after 8 h, were washed-out. Then, 100 µL per well of MMP-2 inhibitor (10 µM final concentration) were added and cells were incubated for 16 h, prior to the treatment. Later, the conjugate 2 and free MMAE were dissolved in 10% serum containing medium and added to reach the same concentrations evaluated in the previous test in a final volume of 100 µL per well and incubated (5% serum final) continuously for 72 h of the treatment. The experiments were performed in triplicate.

SK-OV-3 cells = assay: as above; type: cell-based, human; settings: 16 h pre-incubation with MMP-2 inhibitor 10 µM, then 72 h continuous treatment, 5% serum final; average ± SD, triplicate; read-out: IC50 MMP-2 inhibitor + Treatment 72 h SK-OV-3 (αVβ3 +)
Procedure: as §4, §8, §9

U87MG cells = assay: as above; type: cell-based, human; settings: 16 h pre-incubation with MMP-2 inhibitor 10 µM, then 72 h continuous treatment, 5% serum final; average ± SD, triplicate; read-out: IC50 MMP-2 inhibitor + Treatment 72 h U87MG (αVβ3 +)
Procedure: as §4, §8, §9

[9] = molecular target: T1, recombinant human MMP-2 protein (Active) (Homo sapiens, UniProt P08253); assay: Enzymatic-cleavage assay with MMP-2 enzyme; type: in vitro ADME; settings: recombinant human MMP-2, enzyme:linker 1:20 (w/w), Tris·HCl buffer pH 7.4, 37 °C, 74 h, HPLC-UV 254 nm, by retention time vs free MMAE
T1 construct: with the active form of MMP-2 enzyme; purchased Abcam ab81550
T1 sequence (P08253 110-660): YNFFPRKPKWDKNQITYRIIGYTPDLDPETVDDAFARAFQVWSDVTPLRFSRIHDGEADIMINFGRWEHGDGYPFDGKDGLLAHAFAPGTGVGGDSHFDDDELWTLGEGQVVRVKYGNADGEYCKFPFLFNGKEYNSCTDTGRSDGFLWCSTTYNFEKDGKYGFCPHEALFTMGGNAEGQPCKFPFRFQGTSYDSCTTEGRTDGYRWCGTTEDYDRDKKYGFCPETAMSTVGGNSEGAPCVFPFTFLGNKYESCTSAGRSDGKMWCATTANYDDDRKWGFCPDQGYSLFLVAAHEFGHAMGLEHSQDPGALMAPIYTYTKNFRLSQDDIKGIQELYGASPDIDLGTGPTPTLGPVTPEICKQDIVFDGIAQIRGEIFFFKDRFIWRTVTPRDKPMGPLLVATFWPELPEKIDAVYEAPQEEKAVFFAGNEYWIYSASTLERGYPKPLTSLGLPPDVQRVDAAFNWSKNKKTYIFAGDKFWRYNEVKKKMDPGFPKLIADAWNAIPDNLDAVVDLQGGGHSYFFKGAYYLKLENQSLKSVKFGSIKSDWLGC
Procedure: The cleavage test with the MMP-2 enzyme was performed using recombinant human MMP-2 protein (Active) purchased from Abcam (ab81550). A buffer solution Tris∙HCl (50 mM), NaCl (0.2 M), CaCl2 (10 mM), Brij-35 (0.05%), ZnSO4 (50 µM), pH 7.4 was prepared in accordance with the literature ([Tauro et al., 2008]). A solution of EDTA (50 mM) was prepared for stopping the MMP-2 activity. For the assay, the MMP-2 enzyme (10 µg) was diluted with 100 µL Milli-Q Water, accordingly to the data sheet. A solution of the H2N-GPLG-PABC-MMAE 7 was prepared (0.105 mg in 0.881 mL of buffer solution). To start the assay, 25 µL MMP-2 enzyme was added to 475 µL of the linker solution to have 1:20 (w/w) enzyme: linker ratio. […] The resulting solution was diluted with 180 µL Milli-Q Water and 70 µL of acetonitrile (MeCN) and analyzed by analytical HPLC SHIMADZU LC-20AP equipped with diode array UV detector and LiChrosorb RP-18 (5 μm) C18 column. […]
Samples were analyzed using analytical HPLC SHIMADZU LC -20AP equipped with diode array UV detector and LiChrosorb® RP-18 (5 μm) C18 column, flow rate: 1 mL/min., gradient: from 90% (H2O + 0.1% TFA) / 10% (MeCN) to 40% (H2O + 0.1% TFA) / 60% (MeCN) in 16 min. to 10% (H2O + 0.1% TFA) / 90% (MeCN) in 9 min. to 10% (H2O + 0.1% TFA) / 90% (MeCN) in 5 min. to 90% (H2O + 0.1% TFA) / 10% (MeCN) in 5 min. to 90% (H2O + 0.1% TFA) / 10% (MeCN) in 5 min. […]

Row | SMILES | IC50 [1] [nM] | IC50 [2] [nM] | IC50 [3] [nM] | IC50 [4] [nM] | IC50 [5] [nM] | IC50 72h SK-MEL-28 [5] | IC50 [6] [nM] | IC50 [7] [nM] | IC50 [8] | IC50 (SK-MEL-28 cells) [nM] | IC50 (SK-OV-3 cells) [nM] | IC50 (U87MG cells) [nM] | release of free MMAE on incubation with active MMP-2 [9]
1 | CC[C@H](C)[C@@H]([C@@H](CC(=O)N1CCC[C@H]1[C@H](OC)[C@@H](C)C(=O)N[C@H](C)[C@@H](O)c1ccccc1)OC)N(C)C(=O)[C@@H](NC(=O)[C@@H](NC)C(C)C)C(C)C [MMAE, monomethyl auristatin E] (H-[NMeV]V[Dil][Dolaproine]-X1) | 1400 ± 137 | 266 ± 16.1 | 2130 ± 216 | 206 ± 23.6 | 2.39 ± 0.395 | very low nanomolar range | 0.225 ± 0.0126 | 0.0688 ± 0.0021 | 0.03 nM and 0.0307 nM | 1.9 ± 0.778 | 0.0334 ± 0.0119 | 0.374 ± 0.132 | –
2 | CCCCCCCC/C=C\CCCCCCCC(=O)NO [MMP-2 Inhibitor, cis-9-octadecenoyl-N-hydroxylamide] | – | – | – | – | – | – | – | – | – | > 20000 | > 20000 | > 20000 | –
3 | CC[C@H](C)[C@@H]([C@@H](CC(=O)N1CCC[C@H]1[C@H](OC)[C@@H](C)C(=O)N[C@H](C)[C@@H](O)c1ccccc1)OC)N(C)C(=O)[C@@H](NC(=O)[C@H](C(C)C)N(C)C(=O)OCc1ccc(NC(=O)CNC(=O)[C@H](CC(C)C)NC(=O)[C@@H]2CCCN2C(=O)CN)cc1)C(C)C [compound 7, H2N-GPLG-PABC-MMAE] (H-GPLG[PABC][NMeV]V[Dil][Dolaproine]-X1) | – | – | – | – | – | – | – | – | – | – | – | – | not observed
4 | N=C(N)NCCC[C@@H]1NC(=O)CNC(=O)C[C@@H](C(=O)O)NC(=O)C[C@H]2NC(=O)[C@H](CNC1=O)N(Cc1ccccc1)C2=O [compound 10, cyclo[DKP-isoDGR], reference compound] | > 20000 | > 20000 | > 20000 | > 20000 | – | – | – | – | – | – | – | – | –

Reference: article PMC10363981, “Optimizing the enzymatic release of MMAE from isoDGR-based small molecule drug conjugate by incorporation of a GPLG-PABC enzymatically cleavable linker” (Frontiers in Pharmacology, 2023)
